Data reported in paper PMC10547238, “Discovery of Potent Tetrazole Free Fatty Acid Receptor 2 Antagonists” (Journal of Medicinal Chemistry, 2023).

Tests used:
[1] = target: T1, hFFA2 (Homo sapiens, UniProt O15552); assay: cAMP assay, antagonist mode, Flp-In T-Rex 293 cells expressing hFFA2-eYFP; assay type: cell-based; settings: for cAMP pIC50: hFFA2, antagonist mode, propionate at EC80, mean ± SEM, three or more experiments; for LLEcAMP: pIC50, cAMP – ClogP; for IC50 / hFFA2 cAMP (pIC50): supplementary CSV; for IC50: read-out: hFFA2 cAMP (pIC50) (converted)
T1 construct: expressed in transfected cells; host or cells: Flp-In T-Rex 293 cells, doxycycline-induced
T1 sequence (O15552 1-330): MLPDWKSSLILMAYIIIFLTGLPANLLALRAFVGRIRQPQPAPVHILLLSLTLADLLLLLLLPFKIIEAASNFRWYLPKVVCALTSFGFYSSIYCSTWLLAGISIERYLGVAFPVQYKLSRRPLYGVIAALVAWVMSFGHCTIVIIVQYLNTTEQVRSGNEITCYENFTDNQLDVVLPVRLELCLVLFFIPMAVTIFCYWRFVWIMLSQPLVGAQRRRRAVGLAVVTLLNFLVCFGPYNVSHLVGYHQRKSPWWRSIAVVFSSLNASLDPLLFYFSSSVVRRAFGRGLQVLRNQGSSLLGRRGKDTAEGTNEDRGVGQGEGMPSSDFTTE
Experimental: (§1) The activity of the compounds on FFA2 was evaluated in two different functional antagonist assays, both using propionate at EC80 as the agonist. The GTPγS assay reflects receptor activation by directly assessing G protein recruitment, whereas the cAMP assay, performed in whole cells, reflects a physiologically relevant downstream second messenger.
The hFFA2-eYFP and hFFA3-eYFP Flp-In T-Rex 293 cell lines were maintained in Dulbecco’s modified Eagle mMedium (DMEM, ThermoFisher #11965092) supplemented with 10% (v/v) fetal bovine serum, 100 U/mL penicillin, 100 μg/mL streptomycin, 5 μg/mL blasticidin S, and 200 μg/mL hygromycin B and incubated at 37 °C and 5% CO2 in a humidified incubator. Cells were passaged at 70–80% confluency.
To determine the compound’s ability to activate or inhibit the Gi-coupled FFA2 or FFA3, intracellular cAMP concentrations were determined using Flp-In T-Rex293 cells induced to express hFFA2-eYFP or hFFA3-eYFP. Experiments were carried out using a homogeneous time-resolved FRET-based detection kit (CisBio, PerkinElmer #62AM9PEC) according to the manufacturer’s protocol. The day before the assay, 10,000 cells/well were plated in DMEM supplemented with penicillin/streptomycin (100 units/mL and […], respectively), 5 μg/mL blasticidin S, and 200 μg/mL hygromycin B in 96-well cell culture microplates (Greiner Bio-One) and induced to express hFFA2-eYFP or hFFA3-YFP with 100 ng/mL doxycycline.
In antagonist mode, the cells were pre-incubated for 20 min with antagonist test compounds in HBSS together with 50 μM IBMX at rt. Then, the cells were further incubated for 25 min at rt in HBSS with the agonist compound, sodium propionate at EC80 (51.4 μM for FFA2, 13.2 μM for FFA3), and 3 μM forskolin. Reactions were stopped, and the output was measured with an Envision plate reader using a time-resolved fluorescence protocol, measuring the light emission at 620 and 665 nm. All analyses were performed in triplicate and analyzed using GraphPad Prism (version 9).

[2] = target: T2, human FFA2-eYFP (Homo sapiens, UniProt O15552); assay: [35S]GTPγS incorporation assay, membranes of Flp-In T-Rex 293 cells; assay type: biochemical; settings: for GTPγS pIC50: hFFA2, propionate at EC80, mean ± SEM, three or more experiments; for LLEGTPγS: pIC50, GTPγS – ClogP
T2 construct: expressed in transfected cells; host or cells: membranes of Flp-In T-Rex 293 cells induced to express the construct
T2 sequence (O15552 1-330): T1 sequence (O15552 1-330)
Experimental: as §1
Functional activity of the compounds were tested in a [^35S]GTPγS incorporation assay using membranes of Flp-In T-Rex 293 cells induced to express human FFA2-eYFP. […] The reaction was initiated by addition of [^35S]GTPγS (100 nCi per reaction) containing 1 μM GDP and incubated at 30 °C for 60 min. The reaction was terminated by rapid vacuum filtration through GF/C glass fiber filter-bottom 96-well microplates (PerkinElmer Life Sciences, Beaconsfield, UK) using a UniFilter FilterMate Harvester (PerkinElmer). Unbound radioligands were removed from filters by three washes with ice-cold PBS. MicroScint-20 (PerkinElmer) was added to dried filters, and [^35S]GTPγS binding was quantified by liquid scintillation spectroscopy.

Row | SMILES | cAMP pIC50 [1] | LLEcAMP [1] | IC50 [1] | GTPγS pIC50 [2] | LLEGTPγS [2] | hFFA2 cAMP (pIC50) [1]
1 | O=C(Cc1cccc(F)c1)N[C@@H](Cc1ccccc1)Cc1nnn[nH]1 [Compound 16d, (S)-2-(3-Fluorophenyl)-N-(1-phenyl-3-(1H-tetrazol-5-yl)propan-2-yl)acetamide] | 6.91 ± 0.07 | 5.09 | 102 nM | 7.47 ± 0.04 | 5.65 | 
2 | O=C(Cc1ccc(Cl)cc1)N[C@@H](Cc1ccc(C(F)(F)F)cc1)Cc1nnn[nH]1 [Compound 16f, (S)-N-(1-(1H-Tetrazol-5-yl)-3-(4-(trifluoromethyl)phenyl)propan-2-yl)-2-(4-chlorophenyl)acetamide] | 8.08 ± 0.11 | 4.80 | 9.33 nM | 8.07 ± 0.04 | 4.79 | 
3 | O=C(Cc1ccncc1)N[C@@H](Cc1ccc(C(F)(F)F)cc1)Cc1nnn[nH]1 [Compound 16t, (S)-N-(1-(1H-Tetrazol-5-yl)-3-(4-(trifluoromethyl)phenyl)propan-2-yl)-2-(pyridin-4-yl)acetamide] | 5.74 ± 0.13 | 4.67 | 2950 nM | 6.47 ± 0.15 | 5.40 | 
4 | O=C(Cc1cccc(F)c1)N[C@@H](Cc1ccc(C(F)(F)F)cc1)Cc1nnn[nH]1 [Compound 16c, (S)-N-(1-(1H-Tetrazol-5-yl)-3-(4-(trifluoromethyl)phenyl)propan-2-yl)-2-(3-fluorophenyl)acetamide] | 8.26 ± 0.16 | 5.55 |  | 8.13 ± 0.04 | 5.42 | 
5 | O=C(Cc1cccc(C(F)(F)F)c1)N[C@@H](Cc1ccc(C(F)(F)F)cc1)Cc1nnn[nH]1 [Compound 16i, (S)-N-(1-(1H-Tetrazol-5-yl)-3-(4-(trifluoromethyl)phenyl)propan-2-yl)-2-(3-(trifluoromethyl)phenyl)acetamide] | 7.68 ± 0.11 | 4.23 | 15.8 nM | 8.05 ± 0.21 | 4.60 | 
6 | O=C(N[C@@H](Cc1ccc(C(F)(F)F)cc1)Cc1nnn[nH]1)C1Cc2ccccc21 (stereo partly drawn) [Compound 16b, N-((S)-1-(1H-Tetrazol-5-yl)-3-(4-(trifluoromethyl)phenyl)propan-2-yl)bicyclo[4.2.0]octa-1(6),2,4-triene-7-carboxamide] | 7.96 ± 0.03 | 5.39 |  | 8.06 ± 0.06 | 5.49 | 7.95 ± 0.12
7 | CCCCCC(=O)N[C@@H](Cc1ccc(C(F)(F)F)cc1)Cc1nnn[nH]1 [Compound 16p, (S)-N-(1-(1H-Tetrazol-5-yl)-3-(4-(trifluoromethyl)phenyl)propan-2-yl)hexanamide] | 6.36 ± 0.12 | 3.45 | 355 nM | 6.37 ± 0.44 | 3.46 | 
8 | O=C(Cc1ccccc1)N[C@@H](Cc1ccc(C(F)(F)F)cc1)Cc1nnn[nH]1 [Compound 16a, (S)-N-(1-(1H-Tetrazol-5-yl)-3-(4-(trifluoromethyl)phenyl)propan-2-yl)-2-phenylacetamide] | 7.89 ± 0.20 | 5.33 | 11.7 nM | 8.36 ± 0.09 | 5.80 | 
9 | O=C(CC1CCCC1)N[C@@H](Cc1ccc(C(F)(F)F)cc1)Cc1nnn[nH]1 [Compound 16o, (S)-N-(1-(1H-Tetrazol-5-yl)-3-(4-(trifluoromethyl)phenyl)propan-2-yl)-2-cyclopentylacetamide] | 5.24 ± 0.17 | 2.35 |  | 5.78 ± 0.14 | 2.89 | 5.22 ± 0.18
10 | O=C(Cc1ccc(Cl)nc1)N[C@@H](Cc1ccc(C(F)(F)F)cc1)Cc1nnn[nH]1 [Compound 16v, (S)-5-(2-((1-(1H-Tetrazol-5-yl)-3-(4-(trifluoromethyl)phenyl)propan-2-yl)amino)-2-oxoethyl)-2-chloropyridin-1-ium 2,2,2-trifluoroacetate] | 6.98 ± 0.13 | 5.20 | 95.5 nM | 7.20 ± 0.14 | 5.42 | 
